{
  "source": "patent US9205135B2",
  "about": "“Podocyte pH modulation and uses thereof” (University of Miami, priority 2009, dated 2015)",
  "key": {"[1]": {"system": "cathepsin L", "assay": "Cathepsin L activity in cultured podocytes, CV-(FR)2 substrate", "type": "cell-based, mouse", "settings": "effect of the injury stimulus itself", "method": "Subcellular sites of cathepsin L and cathepsin B activity in glomerular extracts were visualized by a fluorogenic substrate, CV-(FR)2, which emits light upon cleavage by cathepsin L or cathepsin B (Biomol).\nMeasurement of cathepsin L activity: Cathepsin L activities in cultured podocytes and in glomeruli was measured using CV-CatL detection kit (Biomol, Plymouth Meeting, Pa.) as described in the manufacturer's instructions. The fluorophore cresyl violet [CV-(FR)2] substrate becomes florescent after Cat L cleavage of the attached Phe-Arg groups. This substrate easily penetrates the cell membrane and the membranes of the internal cellular organelles, enabling the detection of cathepsin activity within living podocytes."}, "[2]": {"system": "podocytes", "assay": "Glutamine uptake rate in cultured podocytes", "type": "cell-based, mouse", "settings": "injury stimulus", "excerpt": "A podocyte metabolic model was constructed based on available databases as well as mRNA and protein expression data extracted from podocytes. The following podocyte culture models were employed: wildtype (control), LPS and PAN stimulated podocytes (inducible injury models) as well as podocytes with genetic deletion of the alpha3 gene (genetic disease model). All injury cultures increase the uptake of glutamine as well as gluconeogenic aminoacids. In addition, there is increasing ammonia production in diseased podocytes. These changes were predicted by the podocyte metabolic model and confirmed by measuring directly amino acids and ammonia (FIGS. 1A-1D).\nMetabolic Flux Analysis emphasizes glutamine utilization pathways for podocyte function: We utilized cultured normal podocytes (control) (15) and three in vitro models for podocyte damage: i) podocytes with α3 integrin deletion (genetic model) (16); ii) podocytes treated with lipopolysaccharides (LPS, immunological model) (17); and iii) podocytes treated with puromycin aminonucleoside (PAN, toxic model) (18). […] Using the podocyte MFA network, we were able to extract podocyte aminoacid and glucose utilization (FIG. 10b-d) that was also independently measured in direct validation studies (data not shown). All analyzed modeling and experimentation data supported the notion that the aminoacid metabolism of podocytes is changed in disease. […]"}, "[3]": {"system": "HEK293", "assay": "Glutamine uptake rate in HEK293 cells", "type": "cell-based", "method": "(§1) All together, these experiments discovered a uniform metabolic response for podocytes that are injured.\n(§2) Cells, antibodies, and standard techniques: Mouse podocyte cell lines (15) and HEK 293 cells (6) were grown as described previously. NIH 3T3 cells were cultured in Dulbecco's modified Eagle's minimal essential medium (Invitrogen, Carlsbad, Calif.) supplemented with 10% fetal calf serum (Invitrogen) and incubated in a humidified atmosphere of 95% air and 5% CO2 at 37° C. Antibody used for immunostaining are Alexa Fluor 594 phalloidin (Molecular Probes, Eugene, Oreg.). Subcellular fractionation was performed as described previously (6)."}, "[4]": {"system": "NIH 3T3", "assay": "Glutamine uptake rate in NIH 3T3 cells", "type": "cell-based", "method": "as §1, §2"}, "[5]": {"system": "podocytes", "assay": "Intracellular pH of podocytes by phosphorus NMR", "type": "cell-based, mouse", "settings": "after 24 hours of LPS exposure; 7.0 under normal conditions", "method": "Another example is using phosphorus NMR spectra for untreated and LPS-treated podocytes. Briefly, podocytes are cultured and treated with LPS. 8×10^7 to 1×10^8 cells are harvested and cultured in phosphate-free medium prior to assay. Phosphorous NMR spectra are acquired and analyzed using an iNMR software package. Intracellular pH (pHi) is calculated from the chemical shift difference (d) between the intracellular inorganic phosphate peak (Pi) and the primary phosphate of nucleoside phosphates (Pa) using equation 1.\nMeasurement of intracellular pH by NMR: Eighty to hundred million podocyte cells were harvested and resuspended in 2-2.5 mL of phosphate-free RPMI medium (MP Biomedicals, Solon, Ohio) with 2.0 mM glutamine (Invitrogen) prior to assay. Phosphorous NMR spectra were acquired on a 14 Tesla Bruker Avance NMR spectrometer (Bruker BioSpin, Billerica, Mass.) with a 10 mm broadband observe (BBO) NMR probe. Cell suspensions were placed in 10 mm (OD) glass NMR tubes (Wilmad LabGlass, Buena, N.J.). Samples were maintained at a temperature of 37° C. […] Spectra were analyzed using the iNMR software package (Mestrelab Research, Spain). Intracellular pH (pHi) was calculated from the chemical shift difference (d) between the intracellular inorganic phosphate peak (Pi) and the primary phosphate of nucleoside phosphates (Pa) using Eq. 1: […]"}, "[6]": {"system": "SNAT3", "assay": "RT-PCR expression of SNAT glutamine transporters in cultured podocytes", "type": "cell-based, mouse", "method": "In brief, total RNA from cultured mouse podocytes was isolated with RNA isolation kit (Qiagen, Germantown, Md.) and the amount of RNA was measured by spectrophotometry. Purified RNA was reverse transcribed and PCR performed using PCR Mastercycler (Eppendorf, Westbury, N.Y.).\n(§3) RT-PCR: We isolated total RNA from murine cultured podocytes and mouse glomeruli using the Trizol reagent (Invitrogen) according to the manufacturer's instructions. cDNA synthesis was performed with SuperScript II Reverse Transcriptase (Invitrogen) using Oligo(dT)12-18 oligonucleotide primers according to the manufacturer's instructions. All samples were run in duplicates."}, "[7]": {"system": "SNAT3", "assay": "RT-PCR expression of SNAT glutamine transporters in mouse glomeruli", "type": "in vivo", "settings": "glomeruli of mice stimulated with LPS", "excerpt": "Podocytes induce expression of SNAT glutamine transporters during injury: Having identified increased glutamine uptake and utilization as a signature for diseased podocytes that varies from other non-differentiated eukaryotic cells (FIG. 7), we studied the expression of the expression of system A (SNAT1, 2, 4) and system N(SNAT3, 5, 6) family members of sodium-coupled neutral amino acid transporters in cultured podocytes (FIG. 2a). Glutamine is known to be a favored substrate throughout the family, except for SNAT4 (21). We also studied these transporters in isolated mouse glomeruli (FIG. 2a). All SNATs were expressed besides SNAT5, 3 and 4 were only found at low levels. […] SNAT3, formerly known as SN1 (Slc38a3), is known as an antiporter that function in the presence of Na+ and takes up glutamine for the exchange of H+. It is highly expressed on the mRNA and protein level in the kidney during metabolic acidosis and involved in the regulation of acid-base homeostasis (22-24).\nas §3"}},
  "data": [
    {"substance": "lipopolysaccharides [LPS]", "values": [
      {"measurement": "cathepsin L activity in podocytes", "setting": "[1]", "result": "stimulate"},
      {"measurement": "glutamine uptake rate", "setting": "[2]", "result": "stimulated"},
      {"measurement": "glutamine uptake rate", "setting": "[3]", "result": "did not respond"},
      {"measurement": "glutamine uptake rate", "setting": "[4]", "result": "did not respond"},
      {"measurement": "podocyte cytosolic pH (NMR)", "setting": "[5]", "result": 6.9},
      {"measurement": "SNAT3 mRNA expression", "setting": "[6]", "result": "prominent induction"},
      {"measurement": "SNAT3 mRNA expression", "setting": "[7]", "result": "increased markedly"}
    ]}
  ]
}
